This is an account of results in patent US9873709B2 (priority 2013, dated 2018).

In this assay the test system is JAK1-dependent STAT6 phosphorylation downstream of IL-13 stimulation in TF-1 human erythroleukemia cells. As to the kind of experiment: cells. The following applies: TF-1, read-out: IL-13-pSTAT6 IC50.
Experimental: Inhibitor potency (EC50) was determined in cell-based assays designed to measure JAK1 dependent STAT phosphorylation.
Prior to use in the assays, TF-1 cells were starved of GM-CSF overnight in OptiMEM medium (Life Technologies, Grand Island, N.Y.) supplemented with 0.5% charcoal/dextran stripped fetal bovine serum (FBS), 0.1 mM non-essential amino acids (NEAA), and 1 mM sodium pyruvate. The assays were run in 384-well plates in serum-free OptiMEM medium using 300,000 cells per well. In a second assay approach, BEAS-2B human bronchial epithelial cells obtained from ATCC were plated at 100,000 cells per well of a 96-well plate one day prior to the experiment. The BEAS-2B assay was run in complete growth medium (bronchial epithelial basal medium plus bulletkit; Lonza; Basel, Switzerland).
Test compounds were serially diluted 1:2 in DMSO and then diluted 1:50 in medium just before use. Diluted compounds were added to the cells, for a final DMSO concentration of 0.2%, and incubated for 30 min (for the TF-1 assay) or 1 hr (for the BEAS-2B assay) at 37° C. Then, cells were stimulated with human recombinant cytokine at their respective EC90 concentrations, as previously determined for each individual lot. […] The resultant samples were frozen in the plates at −80° C. Compound mediated inhibition of STAT6 phosphorylation was measured in the cell lysates using MesoScale Discovery (MSD) technology (Gaithersburg, Md.).
As to `CN1CCCC2(CCCN(C(=O)c3ccc(Nc4nc5c(C6=CCN(C(=O)CCC(F)(F)F)CC6)cccn5n4)cc3)C2)C1` (stereo not shown) [Example 2-93, 4,4,4-trifluoro-1-[4-[2-[4-(8-methyl-2,8-diazaspiro[5.5]undecane-2-carbonyl)anilino]-[1,2,4]triazolo[1,5-a]pyridin-8-yl]-3,6-dihydro-2H-pyridin-1-yl]butan-1-one], the IC50 was determined as 0.0047 µM.
For the compound `CCOC(=O)N1CC=C(c2cccn3nc(Nc4ccc(C(=O)OC5CCN(C)CC5)cc4)nc23)CC1` [Example 2-94, ethyl 4-[2-[4-[(1-methyl-4-piperidyl)oxycarbonyl]anilino]-[1,2,4]triazolo[1,5-a]pyridin-8-yl]-3,6-dihydro-2H-pyridine-1-carboxylate], the IC50 is 0.0236 µM.
With `O=C(CCC(F)(F)F)N1CC=C(c2cccn3nc(Nc4ccc(C(=O)N5CCN(Cc6ccccn6)CC5)cc4)nc23)CC1` [Example 2-95, 4,4,4-trifluoro-1-[4-[2-[4-[4-(2-pyridylmethyl)piperazine-1-carbonyl]anilino]-[1,2,4]triazolo[1,5-a]pyridin-8-yl]-3,6-dihydro-2H-pyridin-1-yl]butan-1-one], the IC50 was found to be 0.0043 µM.
As for `CN(CCc1ccncc1)C(=O)c1ccc(Nc2nc3c(C4=CCN(C(=O)CCC(F)(F)F)CC4)cccn3n2)cc1` [Example 2-96, N-methyl-N-[2-(4-pyridyl)ethyl]-4-[[8-[1-(4,4,4-trifluorobutanoyl)-3,6-dihydro-2H-pyridin-4-yl]-[1,2,4]triazolo[1,5-a]pyridin-2-yl]amino]benzamide], the IC50 is 0.0052 µM.
In the case of `CN(C)C1CCN(C(=O)c2ccc(Nc3nc4c(C5=CCN(C(=O)CCC(F)(F)F)CC5)cccn4n3)cc2)CC1` [Example 2-97, 1-[4-[2-[4-[4-(dimethylamino)piperidine-1-carbonyl]anilino]-[1,2,4]triazolo[1,5-a]pyridin-8-yl]-3,6-dihydro-2H-pyridin-1-yl]-4,4,4-trifluoro-butan-1-one] it was 0.0137 µM; in that of `CN1CCN(C(=O)c2ccc(Nc3nc4c(C5=CCN(C(=O)CCC(F)(F)F)CC5)cccn4n3)cc2)CC1` [Example 2-98, 4,4,4-trifluoro-1-[4-[2-[4-(4-methylpiperazine-1-carbonyl)anilino]-[1,2,4]triazolo[1,5-a]pyridin-8-yl]-3,6-dihydro-2H-pyridin-1-yl]butan-1-one], 0.0115 µM.
Regarding `CN1CCN(CCCNC(=O)c2ccc(Nc3nc4c(C5=CCN(C(=O)CCC(F)(F)F)CC5)cccn4n3)cc2)CC1` [Example 2-99, N-[3-(4-methylpiperazin-1-yl)propyl]-4-[[8-[1-(4,4,4-trifluorobutanoyl)-3,6-dihydro-2H-pyridin-4-yl]-[1,2,4]triazolo[1,5-a]pyridin-2-yl]amino]benzamide], the IC50 came to 0.0294 µM.
In the case of `O=C(NCCN1CCC(O)CC1)c1ccc(Nc2nc3c(C4=CCN(C(=O)CCC(F)(F)F)CC4)cccn3n2)cc1` [Example 2-100, N-[2-(4-hydroxy-1-piperidyl)ethyl]-4-[[8-[1-(4,4,4-trifluorobutanoyl)-3,6-dihydro-2H-pyridin-4-yl]-[1,2,4]triazolo[1,5-a]pyridin-2-yl]amino]benzamide] it was 0.0847 µM; in that of `CN(C)CCN1CCN(C(=O)c2ccc(Nc3nc4c(C5=CCN(C(=O)CCC(F)(F)F)CC5)cccn4n3)cc2)CC1` [Example 2-102, 1-[4-[2-[4-[4-[2-(dimethylamino)ethyl]piperazine-1-carbonyl]anilino]-[1,2,4]triazolo[1,5-a]pyridin-8-yl]-3,6-dihydro-2H-pyridin-1-yl]-4,4,4-trifluoro-butan-1-one], 0.0337 µM; in that of `O=C(CCC(F)(F)F)N1CC=C(c2cccn3nc(Nc4ccc(C(=O)N5CCCC(c6cc7cccnc7[nH]6)C5)cc4)nc23)CC1` (stereo not shown) [Example 2-103, 4,4,4-trifluoro-1-[4-[2-[4-[3-(1H-pyrrolo[2,3-b]pyridin-2-yl)piperidine-1-carbonyl]anilino]-[1,2,4]triazolo[1,5-a]pyridin-8-yl]-3,6-dihydro-2H-pyridin-1-yl]butan-1-one], 0.145 µM.

Usually IC50 stands for the concentration that inhibits the measured activity by half.
